Source: patent publication EP0863156A1, “Peptides useful as somatostatin antagonists” (American Cyanamid Company, priority 1997, dated 1998)
Square brackets hold non-standard residues; d marks the D form. Peptide text beside a SMILES is read from it.

How the values were obtained:
[1] = test system: spontaneous growth hormone secretory pulses; test: Spontaneous growth hormone secretory pulses in conscious rats under intravenous infusion; assay type: in vivo, Male Sprague-Dawley rats; conditions: Figure 5
Method: Evaluation in conscious rats. Male Sprague-Dawley rats are fitted so as to allow efficient intravenous treatment with control and test compounds as well as frequent blood sampling. Blood samples are tested for growth hormone (GH) levels by radioimmunoassay. Blood samples are taken over a 12 hour period. At a 6 hour time point, peptide 1 is infused intravenously (300 µg/hr) into conscious, freely moving male rats for two hours. Control animals receive saline infusions over the same time period. […] It is known, SRIF is required for growth hormone pulsatility and that an SRIF antagonist abolishes said pulsatility (see Tannenbaum, G.S. and Ling, N., Endocrinology, 115, 1952-1957, 1984, incorporated herein by reference).

Male Sprague-Dawley rats = test: Serum growth hormone levels in anaesthetized rats after intravenous treatment (radioimmunoassay); assay type: in vivo; conditions: for SGH: GRF 1 µg + Peptide 1 50 µg at 30 min
Method: Evaluation in anaesthetized rats. Male Sprague-Dawley rats are anaesthetized with Sagatal and fitted so as to allow efficient intravenous treatment with control and test compounds as well as frequent blood sampling. Blood samples are tested for growth hormone (GH) levels by radioimmunoassay. Thirty minutes after the initiation of blood sampling, rats are given 5 µg, 25 µg or 50 µg of peptide 1.
Peptide 1 is tested in combination with growth hormone releasing factor (GRF), to investigate whether said peptide may be mimicking the action of GRF. Anaesthetized rats are given GRF (1 µg) alone and in combination with peptide 1 (50 µg). […]

SSTR2 [2] = target: T1, SSTR2 (Rattus norvegicus, UniProt P30680); test: cAMP accumulation in forskolin-stimulated GH4C1/SSTR2 cells (SPA radioimmunoassay); assay type: cell-based; parameters: expressed in transfected cells; host or cells: GH4C1 rat pituitary tumor cells
T1 sequence (P30680 whole entry): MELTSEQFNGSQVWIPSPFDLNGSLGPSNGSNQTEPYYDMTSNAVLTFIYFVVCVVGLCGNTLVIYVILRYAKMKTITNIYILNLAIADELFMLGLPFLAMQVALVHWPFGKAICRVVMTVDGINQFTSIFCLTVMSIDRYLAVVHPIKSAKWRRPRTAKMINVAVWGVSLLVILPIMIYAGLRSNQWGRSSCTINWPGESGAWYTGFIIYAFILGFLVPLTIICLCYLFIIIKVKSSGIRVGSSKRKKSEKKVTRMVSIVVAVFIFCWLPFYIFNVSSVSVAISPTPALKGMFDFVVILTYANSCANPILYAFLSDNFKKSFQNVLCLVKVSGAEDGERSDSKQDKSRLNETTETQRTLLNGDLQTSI

SSTR2 [3] = target: T1, SSTR2; test: as above; assay type: cell-based; parameters: expressed in transfected cells; host or cells: GH4C1 rat pituitary tumor cells (GH4C1/SSTR2); conditions: in the absence of SRIF (inverse agonist activity)
Excerpt: A primary effect of SRIF upon mammalian cells is the reduction of cyclic adenosine 3',5'-monophosphate(cAMP) levels, via inhibition of adenylyl cyclase. This is the basis of a common assay for SRIF agonists and antagonists, whereby SRIF agonists reduce artificially stimulated cAMP levels, and SRIF antagonists reverse the effect of SRIF. The rat pituitary tumor cell line GH4C1 predominantly expresses SSTR2, and responds to SRIF and to forskolin, a stimulator of adenylate cyclase (see C.M. Eppler, et al., J. Biol. Chem., 267, 15603-15612, 1992, incorporated herein by reference). […] This increases the response to SRIF and provides a greater dynamic range for the measurement of SRIF antagonist activity.
Stimulation of cells. GH4C1/SSTR2 cells, grown in DMEM with 10% bovine serum, are released from a tissue culture dish by incubation for several minutes at 37° C with PBS containing 0.5 mM EDTA. Cells are washed in induction buffer (PBS containing 100 µM IBMX (an inhibitor of cAMP breakdown) and 2 mM CaCl2) at room temperature, and resuspended at 2 x 10^6/mL in induction buffer. Into each well of a 96-well tray are added 50 µL of a 2 X concentration of stimulants in induction buffer. […] Baseline cAMP levels are determined in samples with no added forskolin or SRIF, and each treatment is performed in triplicate.
cAMP assay. […] The 96-well tray is sealed, shaken at room temperature overnight and measured for bound radioligand in a MicroBeta liquid scintillation counter (Wallac, Gaithersburg. MD). The standard curve is determined for each experiment by performing a nonlinear regression (exponential decay) analysis of cpm measured for the cAMP standards vs. their log concentrations, and test sample values are determined by using Prism software (Graphpad Software Inc., San Diego, CA) and are shown in Table II and Figure 1.
The intrinsic activity of an SRIF antagonist is the percent reversal of the SSTR2 activation by SRIF or MK678, wherein 0% is defined by cAMP levels in samples treated with forskolin plus SRIF or MK678 and 100% is the cAMP level measured after treatment with forskolin alone. […]

- cAMP (SSTR2 [2]; Forskolin 1.25 µM + MK 678 10 nM + Peptide 1 1 µM (forskolin + MK 678 alone 0.91)): 1.14 pM per 4 x 10^4 cells
- cAMP (SSTR2 [2]; Forskolin 1.25 µM + MK 678 10 nM + Peptide 1 10 µM (forskolin + MK 678 alone 0.91)): 2.69 pM per 4 x 10^4 cells
- cAMP (SSTR2 [2]; Forskolin 1.25 µM + MK 678 10 nM + Peptide 1 50 µM (forskolin + MK 678 alone 0.91)): 3.32 pM per 4 x 10^4 cells
- cAMP (SSTR2 [2]; Forskolin 1.25 µM, no MK 678, Peptide 1 1 µM (forskolin alone 3.04; baseline 0.36)): 2.57 pM per 4 x 10^4 cells
- cAMP (SSTR2 [2]; Forskolin 1.25 µM, no MK 678, Peptide 1 10 µM (forskolin alone 3.04; baseline 0.36)): 3.05 pM per 4 x 10^4 cells
- cAMP (SSTR2 [2]; Forskolin 1.25 µM, no MK 678, Peptide 1 50 µM (forskolin alone 3.04; baseline 0.36)): 3.33 pM per 4 x 10^4 cells
- Emax at 2 µM (SSTR2 [2]; GH4-C1, test peptide 2 µM, percent reversal of SSTR2 activation by SRIF or MK678, 0% = forskolin plus agonist, 100% = forskolin alone, read-out: cAMP Assay Intrinsic activity): 85.2%
Compound: CC[C@@H](C)[C@@H](NC(=O)[C@@H](Cc1ccccc1)NC(=O)[C@@H](Cc1c[nH]cn1)NC(C)=O)C(=O)N[C@H](CCCNC(=N)N)C(=O)N[C@H](Cc1c[nH]c2ccccc12)C(=O)N[C@H](Cc1ccccc1)C(N)=O [Peptide 1, Ac-D-His-D-Phe-D-Ile-D-Arg-D-Trp-D-Phe-NH2] (Ac-[dH][dF][dI][dR][dW][dF]-NH2)
- growth hormone secretory pulses upon withdrawal ([1]; conscious male rats, after end of the two hour infusion of 300 µg/hr): the pulses resume synchronously, and gradually desynchronize with time
- spontaneous growth hormone secretory pulses during infusion ([1]; conscious, freely moving male rats, 300 µg/hr intravenously for two hours from 6 hour time point): abolition of these pulses
- SGH (Male Sprague-Dawley rats; time 35 min): 195.8 ng/mL
- SGH (Male Sprague-Dawley rats; time 40 min): 176.2 ng/mL
- SGH (Male Sprague-Dawley rats; time 45 min): 40.5 ng/mL
- GH levels (Male Sprague-Dawley rats; GRF (1 µg) in combination with peptide 1 (50 µg), compared with GRF alone): rise faster and higher than with GRF alone
- forskolin-stimulated cAMP levels in the absence of SRIF (inverse agonist activity) (SSTR2 [2]; GH4C1/SSTR2 cells, no added SRIF, Figure 1 (Table II) and Figure 2 (Table IV)): causes an increase in forskolin-stimulated cAMP levels even in the absence of SRIF
- parallelism of the dose response curves of S-14 or MK678 with and without peptide 1 (SSTR2 [2]; forskolin stimulated cells, increasing doses of S-14 or MK678, Figure 2 (Table IV)): directly competing with the SRIF agonists
- forskolin-stimulated cAMP levels (SSTR2 [3]): increase in forskolin-stimulated cAMP levels
